In one assay the target is Adenosine A2 receptor (Rattus norvegicus, UniProt P29276+P30543). The experiment in a line: Binding affinity against Adenosine A2 receptor in rat striatal membranes using [3H]5'-(N-ethylcarboxamido)-adenosine (NECA) as the ligand. It counts as cell membranes, Striatum, Membrane.
Assay [1] concerns the target T1, Adenosine receptor A1 (Rattus norvegicus, UniProt P25099).
T1 sequence (P25099 whole entry): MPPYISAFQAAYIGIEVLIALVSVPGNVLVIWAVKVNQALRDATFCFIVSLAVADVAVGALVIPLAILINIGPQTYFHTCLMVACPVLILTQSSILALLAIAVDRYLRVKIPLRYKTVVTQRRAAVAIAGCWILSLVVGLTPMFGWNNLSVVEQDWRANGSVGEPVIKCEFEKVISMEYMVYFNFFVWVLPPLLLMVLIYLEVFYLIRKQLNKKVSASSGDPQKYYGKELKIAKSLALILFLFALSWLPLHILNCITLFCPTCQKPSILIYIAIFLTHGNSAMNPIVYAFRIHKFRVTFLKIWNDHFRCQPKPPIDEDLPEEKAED
The experiment in a line: Binding affinity at Adenosine A1 receptor in rat brain cortical membrane using [3H]N6-R-phenylisopropyladenosine (R-PIA) as radioligand. In kind it is cell membranes.

In assay [2] the target is T1, Adenosine receptor A1. The experiment in a line: Binding affinity at A1 adenosine receptor in rat brain cortical membrane using [3H]- N6-R-phenylisopropyladenosine (R-PIA). In kind it is cell membranes.
In assay [3] the target is T2, Adenosine receptor A1 (Rattus norvegicus) (UniProt P25099).
T2 sequence (whole entry): T1 sequence (P25099 whole entry)
The experiment in a line: Binding affinity at Adenosine A1 receptor in rat brain cortical membrane using [3H]- N6-R-phenylisopropyladenosine (R-PIA) at 250 uM. It counts as cell membranes.

Assay [4] deals with T3, Adenosine A2 receptor (Rattus norvegicus) (UniProt P29276+P30543). To be noted: Striatum, Membrane, at 250 µM.
Description: Binding affinity at Adenosine A2 receptor in rat striatal membrane using [3H]- 5'-N-ethylcarboxamidoadenosine (NECA) at 250 uM
In assay [5] the target is T3, Adenosine A2 receptor (Rattus norvegicus). The experiment in a line: Binding affinity at Adenosine A2 receptor in rat striatal membrane using [3H]- 5'-N-ethylcarboxamidoadenosine (NECA) at 1 uM. In kind it is cell membranes. The conditions noted are these: Striatum.
Assay [6] deals with T2, Adenosine receptor A1 (Rattus norvegicus). Briefly: Binding affinity at Adenosine A1 receptor in rat brain cortical membrane using [3H]- N6-R-phenylisopropyladenosine (R-PIA) at 100 uM. It counts as cell membranes.
For assay [7] the target is unchanged. Briefly: Binding affinity at Adenosine A1 receptor in rat brain cortical membrane using [3H]- N6-R-phenylisopropyladenosine (R-PIA). It counts as cell membranes. To be noted: concentration not given here.
Assay [8] has as its target T3, Adenosine A2 receptor (Rattus norvegicus). The experiment in a line: Binding affinity at Adenosine A2 receptor in rat striatal membrane using [3H]- 5'-N-ethylcarboxamidoadenosine (NECA) at 200 uM. To be noted: Striatum.
In assay [9] the target is T2, Adenosine receptor A1 (Rattus norvegicus). Briefly: Binding affinity at A1 adenosine receptor in rat brain cortical membrane using [3H]- N6-R-phenylisopropyladenosine (R-PIA) at 250 uM. It counts as cell membranes.
Assay [10] has the same target. To be noted: Brain, at 250 µM.
Assay [11] has as its target T3, Adenosine A2 receptor (Rattus norvegicus). The experiment in a line: Binding affinity at Adenosine A2 receptor in rat striatal membrane using [3H]- 5'-N-ethylcarboxamidoadenosine (NECA) at 200 uM. To be noted: Striatum. It counts as cell membranes.
For assay [12], the target named is T2, Adenosine receptor A1 (Rattus norvegicus). The experiment in a line: Binding affinity at Adenosine A1 receptor in rat brain cortical membrane using [3H]- N6-R-phenylisopropyladenosine (R-PIA) at 200 uM.
For assay [13], the target named is T3, Adenosine A2 receptor (Rattus norvegicus). The experiment in a line: Binding affinity at Adenosine A2 receptor in rat striatal membrane using [3H]- 5'-N-ethylcarboxamidoadenosine (NECA) at 20 uM. In kind it is cell membranes. To be noted: Striatum.

With `O=c1[nH]c2[nH]cnc2c(=O)n1Cc1ccccc1`, the Ki (commonly the equilibrium dissociation constant of an inhibitor or competing ligand from its target) at Adenosine A2 receptor was determined as 22 µM; at Adenosine receptor A1 [1], 2.8 µM. For `CCCn1c(=O)[nH]c(=O)c2[nH]c(C3CCCCC3)nc21`, the inhibition constant Ki on Adenosine A2 receptor is 24 µM.

The molecule `O=c1[nH]c2nc(-c3ccccc3)[nH]c2c(=O)n1Cc1cccc(Cl)c1` came in with a Ki on Adenosine receptor A1 [2] of 0.068 µM.

Take `CCn1c(=O)[nH]c2[nH]c(-c3ccccc3)nc2c1=O`: the inhibitory constant (Ki) on Adenosine A2 receptor was 1.8 µM; at Adenosine receptor A1 [1], 0.15 µM. In the case of `O=c1[nH]c2nc(-c3ccccc3)[nH]c2c(=O)n1CCc1ccccc1`, at Adenosine receptor A1 [1], the Ki turned out to be 0.19 µM. With `CCCn1c(=O)[nH]c2[nH]cnc2c1=O`, the inhibition constant Ki turned out to be 33 µM at Adenosine A2 receptor and 13 µM on Adenosine receptor A1 [1].

Take `C#CCn1c(=O)c2[nH]cnc2n(C)c1=O`: the Ki at Adenosine A2 receptor stood at 4.8 µM; on Adenosine receptor A1 [1], 0.82 µM. Turning to `C#CCn1cnc2[nH]c(=O)n(C)c(=O)c21`, the figures for the Ki on Adenosine A2 receptor and at Adenosine receptor A1 [1] were 14 µM and 9.9 µM, respectively. Regarding `CCCn1c(=O)[nH]c(=O)c2[nH]c(-c3ccc(S(=O)(=O)O)cc3)nc21`, the inhibition (commonly the drop in the measured response relative to a control, in per cent) turned out to be 40% in assay [3] and 44% in [4]. Consider `O=c1[nH]c2nc[nH]c2c(=O)n1CCc1ccccc1`, for which, at Adenosine receptor A1 [1], the inhibition constant Ki is 12 µM.

Consider `Cn1c(=O)[nH]c(=O)c2[nH]c(-c3ccccc3)nc21`, for which the inhibition in [4] worked out at 17%. This molecule also showed an inhibition constant Ki on Adenosine receptor A1 [1] of 3.4 µM. In turn, `O=c1[nH]c2[nH]c(-c3ccccc3)nc2c(=O)n1Cc1cccc(Cl)c1` returned an inhibition in [5] of 32%. On Adenosine A2 receptor, `CCn1c(=O)c2nc[nH]c2n(C)c1=O` displayed a Ki of 23 µM. On to `CCCn1c(=O)[nH]c2nc(-c3ccc(S(=O)(=O)O)cc3)[nH]c2c1=O`, for which the values for the Ki on Adenosine A2 receptor and on Adenosine receptor A1 [1] were 24 µM and 2.2 µM, respectively. On Adenosine A2 receptor, `CCCn1c(=O)[nH]c2[nH]c(-c3ccccc3)nc2c1=O` registered a Ki of 1.9 µM. As for `CC(C)n1c(=O)[nH]c(=O)c2[nH]cnc21`, the inhibition constant Ki at Adenosine A2 receptor is 53 µM. This molecule also came in with an inhibition in assay [6] of 34%. For `CCCn1c(=O)[nH]c2ncn(C)c2c1=O`, the Ki stood at 29 µM on Adenosine A2 receptor and 21 µM on Adenosine receptor A1 [1]. As for `C#CCn1c(=O)[nH]c2[nH]cnc2c1=O`, the Ki on Adenosine A2 receptor was 26 µM; on Adenosine receptor A1 [1], 20 µM. Take `CC(C)CCn1c(=O)c2nc[nH]c2n(CC(C)C)c1=O`: the Ki at Adenosine A2 receptor was determined as 11 µM. Turning to `C=CCn1c(=O)c2[nH]c(-c3ccccc3)nc2n(C)c1=O`, the Ki was 2.1 µM on Adenosine A2 receptor and 0.1 µM at Adenosine receptor A1 [1]. The corresponding values for `C=CCn1c(=O)[nH]c2[nH]cnc2c1=O` are 10 µM and 9.2 µM.

Turning to `CCCn1c(=O)n(C)c(=O)c2[nH]cnc21`, the Ki on Adenosine A2 receptor stood at 19 µM; at Adenosine receptor A1 [1], 6.3 µM. The like results for `O=c1[nH]c2[nH]cnc2c(=O)n1Cc1cccc(Cl)c1` were, in that order, 26 µM and 4.9 µM.

For the molecule `CC(=O)Cn1c(=O)[nH]c2[nH]c(C3CCCC3)nc2c1=O`, the inhibitory constant (Ki) was 9.7 µM on Adenosine A2 receptor and 2.5 µM at Adenosine receptor A1 [1].

Take `Cn1cnc2[nH]c(=O)[nH]c(=O)c21` [7-METHYLXANTHINE]: the values for the inhibition constant Ki at Adenosine A2 receptor and at Adenosine receptor A1 [1] were 59 µM and 33 µM, respectively. Turning to `Cn1c(=O)[nH]c2ncn(C)c2c1=O` [PARAXANTHINE], the inhibition constant Ki at Adenosine A2 receptor amounted to 32 µM; on Adenosine receptor A1 [1], 21 µM. Turning to `Cn1c(=O)[nH]c(=O)c2[nH]c(-c3ccc(S(=O)(=O)O)cc3)nc21`, the values for the inhibition in assay [4] and in assay [7] were 16% and 5%, respectively. For `CN1CN(C)c2c(O)nc(O)nc21`, the values for the inhibition in assay [8] and in assay [9] were 6% and 5%, respectively. In the case of `C#CCn1c(=O)[nH]c2[nH]c(-c3ccccc3)nc2c1=O`, the Ki at Adenosine A2 receptor stood at 0.73 µM; on Adenosine receptor A1 [1] it was 0.21 µM. `CCCn1c(=O)[nH]c(=O)c2[nH]c(-c3ccccc3)nc21` yielded a Ki on Adenosine A2 receptor of 61 µM. On to `CCCn1cnc2c(=O)[nH]c(=O)[nH]c21`, for which the inhibition stood at 15% in [4] and 42% in assay [9].

For the molecule `O=c1[nH]c2[nH]cnc2c(=O)n1C1CCCC1`, the inhibitory constant (Ki) at Adenosine A2 receptor came out at 13 µM; at Adenosine receptor A1 [1], 11 µM. The like results for `Cn1c(=O)[nH]c2[nH]c(-c3ccccc3)nc2c1=O` were, in that order, 2.2 µM and 0.26 µM.

`Cn1cnc2c(=O)[nH]c(=O)n(C)c21`: the inhibition in assay [10] worked out at 42%; in [11], 11%. `Cn1c(=O)[nH]c(=O)c2[nH]cnc21` [3-METHYLXANTHINE] came in with an inhibition constant Ki at Adenosine A2 receptor of 59 µM. Besides, in assay [6], the inhibition amounted to 24%.

The molecule `CC(C)Cn1c(=O)c2nc[nH]c2n(CC(C)C)c1=O` displayed a Ki on Adenosine receptor A1 [1] of 4 µM. As to `Cn1c(=O)[nH]c2c(ncn2C)c1=O`, the inhibition in assay [11] came to 14%; in assay [12] it was 11%. For the molecule `CCn1c(=O)c2nc[nH]c2n(CC)c1=O`, the inhibitory constant (Ki) turned out to be 31 µM on Adenosine A2 receptor and 3.7 µM on Adenosine receptor A1 [1]. Regarding `CCCn1cnc2[nH]c(=O)[nH]c(=O)c21`, at Adenosine receptor A1 [1], affinity was put at a Ki of 18 µM. Further, the inhibition in assay [11] worked out at 40%.

As for `CCCn1c(=O)[nH]c2[nH]c(C3CCCC3)nc2c1=O`, the Ki on Adenosine A2 receptor turned out to be 0.58 µM; on Adenosine receptor A1 [1], 0.014 µM. Consider `CCn1c(=O)[nH]c2[nH]c(C3CCCCC3)nc2c1=O`, for which, on Adenosine A2 receptor, the Ki was 2.3 µM. `C=CCn1cnc2c1c(=O)[nH]c(=O)n2CC=C`: the Ki on Adenosine A2 receptor and on Adenosine receptor A1 [1] was 36 µM throughout.

For the molecule `C#CCn1c(=O)[nH]c2[nH]c(C3CCCCC3)nc2c1=O`, the inhibition constant (Ki) turned out to be 1.7 µM on Adenosine A2 receptor and 0.17 µM at Adenosine receptor A1 [1]. The corresponding values for `Cn1c(=O)[nH]c2[nH]cnc2c1=O` [1-METHYLXANTHINE] are 47 µM and 36 µM. As for `C#CCn1c(=O)[nH]c2ncn(C)c2c1=O`, the Ki was determined as 16 µM on Adenosine A2 receptor and 22 µM at Adenosine receptor A1 [1]. Regarding `O=c1[nH]c2[nH]c(-c3ccccc3)nc2c(=O)n1CCc1ccccc1`, in assay [5], the inhibition worked out at 0%. Turning to `C#CCn1c(=O)c2c(nc(-c3ccccc3)n2C)n(C)c1=O`, the figures for the inhibitory constant (Ki) on Adenosine A2 receptor and on Adenosine receptor A1 [1] were 6.4 µM and 6.1 µM, respectively. In turn, `CC(C)Cn1c(=O)n(C)c(=O)c2nc[nH]c21` [ISOBUTYLMETHYLXANTHINE] came in with an inhibitory constant (Ki) at Adenosine A2 receptor of 16 µM. In the case of `O=c1[nH]c(=O)c2[nH]c(-c3ccccc3)nc2[nH]1`, the results for the Ki at Adenosine A2 receptor and on Adenosine receptor A1 [2] were 21 µM and 2.5 µM, respectively.

Consider `O=c1[nH]c2[nH]cnc2c(=O)n1CCc1ccccc1`, for which, in assay [13], the inhibition was determined as 0%. The molecule `CC(C)n1c(=O)n(C)c(=O)c2[nH]cnc21` registered an inhibition constant Ki on Adenosine A2 receptor of 16 µM. The same measure, in the same setting: the same measure for `CCCCn1c(=O)[nH]c2[nH]cnc2c1=O`: 61 µM.

As to `CCCn1c(=O)c2nc[nH]c2n(C)c1=O`, the inhibition constant Ki on Adenosine A2 receptor was 37 µM; at Adenosine receptor A1 [1] it was 5.7 µM. Consider `CCCCn1cnc2[nH]c(=O)[nH]c(=O)c21`, for which the Ki came to 66 µM on Adenosine A2 receptor and 27 µM on Adenosine receptor A1 [1].

Source of the values: ChEMBL document CHEMBL1126876, “Synthesis of paraxanthine analogs (1,7-disubstituted xanthines) and other xanthines unsubstituted at the 3-position: structure-activity relationships at adenosine receptors” (J Med Chem, 1993).
